Reference: patent publication USRE43280E1, “Hyperforin derivatives, the use thereof and formulations containing them” (Indena S.p.A., priority 2002, dated 2012)
Read-outs that look alike come from different tables or passages of the source.

How the values were obtained:
rat = experiment: forced swimming test (struggling, floating, swimming); format: in vivo; conditions: 3 doses: 30 minutes after the pre-test, 5 hours and 30 minutes before the test
Protocol: The compounds were administered in 3 doses: 30 minutes after the pre-test, 5 hours and 30 minutes before the test.

[1] = test system: APPs produced by α-secretase in neuroblastoma cell line (SH-SY5Y); experiment: release of APPs produced by α-secretase into the culture medium of SH-SY5Y cells; format: cell-based
[2] = 10 μM, SH-SY5Y culture medium, controls = 100

| Compound | Floating (rat; 10 mg/Kg) | Struggling (rat; 10 mg/Kg) | Swimming (rat; 10 mg/Kg) | Floating (rat; 6.25 mg/Kg) | Struggling (rat; 6.25 mg/Kg) | Swimming (rat; 6.25 mg/Kg) | APPs % [1] | APPs % [1, 2] |
| --- | --- | --- | --- | --- | --- | --- | --- | --- |
| CNCCCN1c2ccccc2CCc2ccccc21 [Desipramin, reference compound] | 53.0 ± 9.2 s | 148.3 ± 12.6 s | 98.8 ± 7.9 s | – | – | – | – | – |
| CC(C)=CCC[C@]1(C)[C@@H](CC=C(C)C)C[C@@]2(CC=C(C)C)C(=O)[C@]1(C(=O)C(C)C)C(=O)C(CC=C(C)C)=C2O [Hyperforin] | – | – | – | 60.4 ± 7.3 s | 30.4 ± 4.6 s | 99.3 ± 10.6 s | 296% | – |
| CC(=O)OC1=C(CCC(C)C)C(=O)[C@@]2(CCC(C)C)C[C@H](CCC(C)C)[C@@](C)(CCCC(C)C)[C@]1(C(=O)C(C)C)C2=O [Acetyloctahydrohyperforin, acetyloctahydrohyperforin] | – | – | – | 68.4 ± 5.7 s | 73.9 ± 5.9 s | 171.9 ± 11.4 s | – | 954% |
| tetrahydrohyperforin | – | – | – | 68.4 ± 7.6 s | 51.4 ± 4.1 s | 193.4 ± 13.2 s | – | 926% |
| dodecahydrohyperforin | – | – | – | 55.1 ± 6.2 s | 62.13 ± 5.1 s | 169.5 ± 10.1 s | – | 879% |
| octahydrohyperforin lithium salt | – | – | – | 59.5 ± 11.3 s | 63.1 ± 5.8 s | 177.4 ± 14.9 s | – | 1383% |
